Results taken from the supplement of paper PMC10307832.

Experiments:
Experiment in all cases: relative viability (nuclei count vs DMSO), 5 days (fraction); higher = more cells survive
Navitoclax = compound: CC1(C)CCC(c2ccc(Cl)cc2)=C(CN2CCN(c3ccc(C(=O)NS(=O)(=O)c4ccc(N[C@H](CCN5CCOCC5)CSc5ccccc5)c(S(=O)(=O)C(F)(F)F)c4)cc3)CC2)C1 [Navitoclax]
Method in brief: (§1)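 Viability was read as treated-well nuclei divided by vehicle-well nuclei, using the median across plates. Lung cancer cell lines in 1536-well plates were kept overnight at 37 °C, pinned with five √10-spaced library-drug doses, and after 5 days were Hoechst-stained, imaged at 4× and counted in MetaXpress. Plates passed only with control CV below 25% and at least one doubling.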

C-75 = compound: CCCCCCCC[C@H]1[C@@H](C(=C)C(=O)O1)C(=O)O [C-75]
Method in brief: as §1

AZD7762 = compound: NC(=O)Nc1cc(-c2cccc(F)c2)sc1C(=O)N[C@H]1CCCNC1 [AZD7762]
Method in brief: as §1

[1] = compound: O=C(O)c1ccc(-c2c[nH]c3ncc(-c4ccccc4)cc23)cc1C1CCCC1
Method in brief: as §1

XAV939 = compound: Oc1nc(-c2ccc(C(F)(F)F)cc2)nc2c1CSCC2 [XAV939]
Method in brief: as §1

Cell Line	relative viability (Navitoclax; 0.005 µM)	relative viability (Navitoclax; 0.01581 µM)	relative viability (Navitoclax; 0.05 µM)	relative viability (Navitoclax; 0.1581 µM)	relative viability (Navitoclax; 0.5 µM)	relative viability (Navitoclax; 0.5 µM, anchor plate)	relative viability (C-75; 0.08 µM)	relative viability (C-75; 0.253 µM)	relative viability (C-75; 0.8 µM)	relative viability (C-75; 2.53 µM)	relative viability (C-75; 8 µM)	relative viability (AZD7762; 0.01 µM)	relative viability (AZD7762; 0.03162 µM)	relative viability (AZD7762; 0.1 µM)	relative viability (AZD7762; 0.2 µM, anchor plate)	relative viability (AZD7762; 0.3162 µM)	relative viability (AZD7762; 1 µM)	relative viability ([1]; 0.04 µM)	relative viability ([1]; 0.1265 µM)	relative viability ([1]; 0.4 µM)	relative viability ([1]; 1.265 µM)	relative viability (XAV939; 0.08 µM)	relative viability (XAV939; 0.253 µM)	relative viability (XAV939; 0.8 µM)	relative viability (XAV939; 2.53 µM)
HARA	0.84	1.26	0.811	0.911	1.01	1.13	0.989	0.963	0.858	0.788	1.03	0.986	0.946	0.999	0.367	0.88	0.368	0.955	1.23	0.846	1.02	1.04	0.904	0.825	0.764
LK-2	1.02	1.03	1.11	0.997	1.02	0.886	0.911	1.25	1.02	0.841	0.706	1.05	1.12	0.955	0.467	0.938	0.776	1	1.06	0.872	0.944	1.06	0.877	1.01	0.755
NCI-H441	0.981	1.07	1.06	1.11	0.986	0.701	1.14	1.09	0.907	0.764	0.957	1.11	1.2	1.05	1.14	1.34	1.03	1.01	1.08	0.817	0.6	1.18	0.962	1.1	1.04
SK-LU-1	1.01	1.06	1.12	0.949	1.02	0.813	1	1.06	0.964	0.894	0.816	1.1	1.06	0.633		0.366	0.242	1.01	1.13	0.978	0.74	1.01	1.02	1.03	1.07
NCI-H1651	0.989	1	0.802	0.942	1	1.06	0.956	1.02	0.952	0.935	0.969	1.02	0.98	1.03	0.495	0.956	0.531	0.931	1.08	0.968	0.784	1	0.85	0.943	1
NCI-H1792	0.956	0.936	0.778	0.693	1.06	0.664	0.904	0.956	0.845	0.76	0.863	0.912	1.02	1.02	0.71	1.08	1.01		1.09	0.856	0.921	0.955	0.874	0.871	0.74
